This is an account of results in article PMC2993768 (Journal of natural products, 2010).

The subject of assay [1] is mouse dorsal root ganglion (DRG) neurons. The conditions noted are these: purified compounds, 20 μg / mL, K+-stimulated.
For assay [2], the system named is other serotonin receptors. In words: PDSP primary binding assay at 10 μM, other serotonin receptors. Details: species or system human. The conditions noted are these: from Ki at 5-HT2B vs no significant binding at 10 μM.
For assay [3] the following is noted: micromolar range; cited from earlier work.

`NC(=O)C1CSC(c2ccccc2O)=N1` (centres unmarked) [Compound 3, pulicatin G]: the “effect on Ca2+ influx in DRG cells” value in assay [1] is “observably increased Ca^2+ influx”. As for `C[C@@H]1SC(c2ccccc2O)=N[C@@H]1CO` [Compound 6, Pulicatin A], in assay [2], the “selectivity for 5-HT2B over related receptors” value is listed as “at least 20 fold”. Moreover, the “effect on Ca2+ influx in DRG cells” value in assay [1] was “decreased Ca^2+ influx”.

As to `OC[C@@H]1CSC(c2ccccc2O)=N1` [Compound 1, aerugine], the “effect on Ca2+ influx in DRG cells” value in assay [1] was “observably increased Ca^2+ influx”.

As to `O=C(O)c1csc(-c2ccccc2O)n1` [Aeruginoic acid], the antihypotensive activity entry in assay [3] is “exhibited antihypotensive activity”.
